Measurements: patent US8048840B2, “Ether compound” (Kao Corporation, priority 2007, dated 2011)

Assay: Emulsification of a mixture of water and oil
Format: physicochemical
Details: with addition of the compound
From the text: Therefore, it is understood that the novel ether compound of the present invention has good water-solubility. It was confirmed that a mixture of water and oil was emulsified with addition of the compound a1-1.

Q: For “dendrimer type tetraglycidyl polylauryl ether [a1-1]”, which “emulsification of a mixture of water and oil” value is on record?
A: emulsified
